# Data published in the NIST ThermoML archive (doi:10.1021/je300382a).
# ± gives the expanded uncertainty stated by the source.
# Experiments:
# [1] = xn = mol fraction of the nth substance listed; conditions: Ring tensiometer, x2 = 0
# [2] = refractive index (Na D-line) (dimensionless); xn = mol fraction of the nth substance listed; conditions: 101 kPa, Liquid, Standard Abbe refractometry, x2 = 0
# [3] = Ring tensiometer
# [4] = refractive index (Na D-line) (dimensionless); conditions: 101.33 kPa, Liquid, Standard Abbe refractometry
surface tension liquid-gas ([1]; 283.15 K),surface tension liquid-gas ([1]; 293.15 K),surface tension liquid-gas ([1]; 303.15 K),surface tension liquid-gas ([1]; 313.15 K),surface tension liquid-gas ([1]; 323.15 K),refractive index ([2]; 283.15 K),refractive index ([2]; 293.15 K),refractive index ([2]; 303.15 K),refractive index ([2]; 313.15 K),refractive index ([2]; 323.15 K),surface tension liquid-gas ([3]; 283.15 K),surface tension liquid-gas ([3]; 293.15 K),surface tension liquid-gas ([3]; 303.15 K),surface tension liquid-gas ([3]; 313.15 K),surface tension liquid-gas ([3]; 323.15 K),refractive index ([4]; 283.15 K),refractive index ([4]; 293.15 K),refractive index ([4]; 303.15 K),refractive index ([4]; 313.15 K),refractive index ([4]; 323.15 K),SMILES
74.2 ± 0.9 mN/m,72.6 ± 0.9 mN/m,71.3 ± 0.9 mN/m,69.2 ± 0.9 mN/m,67.7 ± 0.9 mN/m,1.3343 ± 0.0003,1.333 ± 0.0003,1.3319 ± 0.0003,1.3306 ± 0.0003,1.329 ± 0.0003,–,–,–,–,–,–,–,–,–,–,O [water] + CC(N)CN
74.2 ± 0.9 mN/m,72.6 ± 0.9 mN/m,71.1 ± 0.9 mN/m,69.2 ± 0.9 mN/m,67.7 ± 0.9 mN/m,1.3343 ± 0.0003,1.333 ± 0.0003,1.3319 ± 0.0003,1.3306 ± 0.0003,1.329 ± 0.0003,–,–,–,–,–,–,–,–,–,–,O [water] + NCc1ccccc1
–,–,–,–,–,–,–,–,–,–,35 ± 0.5 mN/m,33.8 ± 0.5 mN/m,32.7 ± 0.5 mN/m,31.4 ± 0.5 mN/m,30.3 ± 0.5 mN/m,1.451 ± 0.0004,1.4458 ± 0.0004,1.4409 ± 0.0004,1.4362 ± 0.0004,1.4314 ± 0.0004,"CC(N)CN (stereo not given) [1,2-propanediamine]"
–,–,–,–,–,–,–,–,–,–,37.9 ± 0.6 mN/m,37.1 ± 0.5 mN/m,36.3 ± 0.5 mN/m,35.6 ± 0.5 mN/m,35 ± 1 mN/m,1.5516 ± 0.0004,1.5445 ± 0.0004,1.5393 ± 0.0004,1.5328 ± 0.0004,1.5279 ± 0.0004,NCc1ccccc1 [benzylamine]
